Results from patent US10131656B2, “Organic thin film transistor, method of manufacturing organic thin film transistor, organic thin film transistor material, organic thin film transistor composition, organic semiconductor film, and compound” (FUJIFILM Corporation, priority 2015, dated 2018).

Experiment: Evaluation of solubility to organic solvent (saturated solubility at room temperature)
Type: physicochemical
Details: room temperature (25° C.); for Solubility to organic solvent Solubility (4): saturated solubility in N,N-dimethylformamide; for Solubility to organic solvent Solubility (2): saturated solubility in chloroform; for Solubility to organic solvent Solubility (3): saturated solubility in tetrahydrofuran; for Solubility to organic solvent Solubility (1): saturated solubility in toluene
Procedure: 2 mg of each example compound and comparative compound obtained above were weighed, and the saturated solubility (mass %) at room temperature (25° C.) was calculated from the volume and the specific gravity of toluene, chloroform, tetrahydrofuran, and N,N-dimethylformamide. Those having 2 mass % or greater were as set as “A”, those having 1 mass % or greater and less than 2 mass % were set as “B”, those having 0.1 mass % or greater and less than 1 mass % were set as “C”, and those having less than 0.1 mass % were set as “D”. Saturated solubility (hereinafter also referred to as solubility) of each compound in toluene, chloroform, tetrahydrofuran, and N,N-dimethylformamide was presented as Solubility (1) to (4), in the evaluation results of a first table.

SMILES	Solubility to organic solvent Solubility (4)	Solubility to organic solvent Solubility (2)	Solubility to organic solvent Solubility (3)	Solubility to organic solvent Solubility (1)
CCCCCCCCCCC(CCCCCCCC)CCn1c(=O)c2ccc3c4ccc5c(=O)n(CCC(CCCCCCCC)CCCCCCCCCC)c(=O)c6cc7sc8cc(c1=O)c2c3c8c7c4c56 (centres unmarked) [Comparative Compound 1]	B (those having 1 mass % or greater and less than 2 mass % were set as “B”)	A (Those having 2 mass % or greater were as set as “A”)	A (Those having 2 mass % or greater were as set as “A”)	B (those having 1 mass % or greater and less than 2 mass % were set as “B”)
S=c1c2ccc3c4ccc5c(=S)n(C6CCCCC6)c(=S)c6cc7sc8cc(c(=S)n1C1CCCCC1)c2c3c8c7c4c56 [Example Compound 3]	B (those having 1 mass % or greater and less than 2 mass % were set as “B”)	B (those having 1 mass % or greater and less than 2 mass % were set as “B”)	B (those having 1 mass % or greater and less than 2 mass % were set as “B”)	B (those having 1 mass % or greater and less than 2 mass % were set as “B”)
